Measured values taken from ChEMBL document CHEMBL3751781, “Three-dimensional QSAR analysis and design of new 1,2,4-oxadiazole antibacterials” (2016).
Values after ≈ are worked out from the molar mass of the structure shown.

System: Staphylococcus aureus
Assay: Antibacterial against Staphylococcus aureus
Format: functional
Conditions: for MIC: Staphylococcus aureus

Compound | MIC [µg/mL] | -logMIC
Oc1c(F)cc(-c2nc(-c3ccc(Oc4ccc(F)cc4)cc3)no2)cc1F | – | 3.872
Oc1ccc(-c2nc(-c3ccc(Oc4ccccc4)cc3)no2)cc1 | – | 5.8
Nc1cc(-c2nc(-c3ccc(Oc4ccc(F)cc4)cc3)no2)cnc1O | 128 (≈ 351 µM) | 1.046
COc1ccc(-c2nc(-c3ccc(Oc4ccc(F)cc4)cc3)no2)cc1OC | 128 (≈ 326 µM) | 1.12
Oc1ccc(-c2nc(-c3ccc(Oc4ccc(C(F)(F)F)cc4)cc3)no2)cc1 | – | 5.987
Cc1nc(-c2ccc(Oc3ccc(C(F)(F)F)cc3)cc2)no1 | 128 (≈ 400 µM) | 0.917
Nc1c[nH]nc1-c1nc(-c2ccc(Oc3ccc(C(F)(F)F)cc3)cc2)no1 | – | 4.573
O=[N+]([O-])c1c[nH]nc1-c1nc(-c2ccc(Oc3ccccc3)cc2)no1 | – | 5.163
Nc1c[nH]nc1-c1nc(-c2ccc(Oc3ccccc3)cc2)no1 | – | 2.994
O=[N+]([O-])c1cc(-c2nc(-c3ccc(Oc4ccc(C(F)(F)F)cc4)cc3)no2)cnc1O | – | 4.017
Oc1c(F)cc(-c2nc(-c3ccc(Oc4ccc(C(F)(F)F)cc4)cc3)no2)cc1F | – | 5.381
O=[N+]([O-])c1ccc(-c2nc(-c3ccc(Oc4ccccc4)cc3)no2)cc1 | 128 (≈ 356 µM) | 1.032
Fc1ccc(Oc2ccc(-c3noc(-c4n[nH]cc4Br)n3)cc2)cc1F | 1 (≈ 2.39 µM) | 6.038
N#Cc1c[nH]nc1-c1nc(-c2ccc(Oc3ccc(C(F)(F)F)cc3)cc2)no1 | – | 5.292
FC(F)(F)c1ccc(Oc2ccc(-c3noc(-c4ccc5[nH]ccc5c4)n3)cc2)cc1 | – | 4.657
Clc1c[nH]nc1-c1nc(-c2ccc(Oc3ccc(I)cc3)cc2)no1 | 1 (≈ 2.15 µM) | 6.141
FC(F)(F)c1ccc(Oc2ccc(-c3noc(-c4cc[nH]n4)n3)cc2)cc1 | 128 (≈ 344 µM) | 0.923
O=[N+]([O-])c1c[nH]nc1-c1nc(-c2ccc(Oc3ccc(F)cc3)cc2)no1 | – | 5.906
Brc1c[nH]nc1-c1nc(-c2ccc(Oc3ccccc3)cc2)no1 | – | 5.949

Compound | MIC [µg/mL] | -logMIC
O=C(Nc1c[nH]nc1-c1nc(-c2ccc(Oc3ccc(C(F)(F)F)cc3)cc2)no1)c1ccccn1 | 128 (≈ 260 µM) | 1.347
O=C(Nc1c[nH]nc1-c1nc(-c2ccc(Oc3ccc(C(F)(F)F)cc3)cc2)no1)c1ccccc1 | 128 (≈ 260 µM) | 1.345
Oc1ccc(Oc2ccc(-c3noc(-c4ccc(O)cc4)n3)cc2)cc1 | 32 (≈ 92.4 µM) | 2.382
Ic1c[nH]nc1-c1nc(-c2ccc(Oc3ccccc3)cc2)no1 | – | 6.064
OCC#Cc1c[nH]nc1-c1nc(-c2ccc(Oc3ccc(C(F)(F)F)cc3)cc2)no1 | – | 4.669
Nc1ccc(-c2nc(-c3ccc(Oc4ccc(C(F)(F)F)cc4)cc3)no2)cc1F | – | 5.336
FC(F)(F)c1ccc(Oc2ccc(-c3noc(-c4n[nH]cc4Cl)n3)cc2)cc1 | – | 6.008
Nc1ccc(-c2nc(-c3ccc(Oc4ccccc4)cc3)no2)cc1 | – | 4.411
Nc1c[nH]nc1-c1nc(-c2ccc(Oc3ccc(F)cc3)cc2)no1 | – | 3.048
FC(F)(F)c1ccc(Oc2ccc(-c3noc(-c4n[nH]cc4I)n3)cc2)cc1 | – | 5.518
FC(F)(F)c1ccc(Oc2ccc(-c3noc(-c4n[nH]cc4NC4CCCCC4)n3)cc2)cc1 | 128 (≈ 273 µM) | 1.3
FC(F)(F)c1ccc(Oc2ccc(-c3noc(-c4n[nH]cc4Br)n3)cc2)cc1 | – | 6.11
Nc1c(F)cc(-c2nc(-c3ccc(Oc4ccccc4)cc3)no2)cc1F | – | 3.821
O=C(c1cccc(Oc2ccc(-c3noc(-c4ccc(O)cc4)n3)cc2)c1)C(F)(F)F | 4 (≈ 9.38 µM) | 4.669
COC(=O)c1ccc(-c2nc(-c3ccc(Oc4ccc(F)cc4)cc3)no2)cc1 | 128 (≈ 328 µM) | 1.115
Oc1ccccc1-c1nc(-c2ccc(Oc3ccccc3)cc2)no1 | 128 (≈ 387 µM) | 0.948
O=[N+]([O-])c1c[nH]nc1-c1nc(-c2ccc(Oc3ccc(C(F)(F)F)cc3)cc2)no1 | – | 5.341
Oc1ccc(-c2nc(-c3ccc(Oc4ccncc4)cc3)no2)cc1 | 128 (≈ 386 µM) | 0.951

Continued by falling MIC, values first:

MIC [µg/mL] | Compound | -logMIC
128 (≈ 289 µM) | CCC(C)Nc1c[nH]nc1-c1nc(-c2ccc(Oc3ccc(C(F)(F)F)cc3)cc2)no1 (stereo unspecified) | 1.243
128 (≈ 277 µM) | NS(=O)(=O)c1ccc(-c2nc(-c3ccc(Oc4ccc(C(F)(F)F)cc4)cc3)no2)cc1 | 1.282
128 (≈ 289 µM) | CCCCNc1c[nH]nc1-c1nc(-c2ccc(Oc3ccc(C(F)(F)F)cc3)cc2)no1 | 1.243
128 (≈ 398 µM) | Fc1ccc(Oc2ccc(-c3noc(-c4cc[nH]c4)n3)cc2)cc1 | 0.92
128 (≈ 367 µM) | Oc1ccc(Oc2ccc(-c3noc(-c4ccc(F)cc4)n3)cc2)cc1 | 1.001
128 (≈ 302 µM) | Oc1ccc(-c2nc(-c3ccc(Oc4ccc(CBr)cc4)cc3)no2)cc1 | 1.196
128 (≈ 321 µM) | Nc1cncc(-c2nc(-c3ccc(Oc4ccc(C(F)(F)F)cc4)cc3)no2)c1 | 1.135
128 (≈ 252 µM) | CCOP(=O)(OCC)c1c[nH]nc1-c1nc(-c2ccc(Oc3ccc(C(F)(F)F)cc3)cc2)no1 | 1.379
128 (≈ 281 µM) | FC(F)(F)c1ccc(Oc2ccc(-c3noc(-c4n[nH]cc4NC4CCCC4)n3)cc2)cc1 | 1.269
128 (≈ 311 µM) | NS(=O)(=O)c1ccc(-c2nc(-c3ccc(Oc4ccc(F)cc4)cc3)no2)cc1 | 1.168
128 (≈ 503 µM) | Oc1ccc(-c2noc(-c3ccc(O)cc3)n2)cc1 | 0.686
128 (≈ 324 µM) | O=[N+]([O-])c1c(F)cc(-c2nc(-c3ccc(Oc4ccccc4)cc3)no2)cc1F | 1.128
128 (≈ 303 µM) | FC(F)(F)c1ccc(Oc2ccc(-c3noc(-c4c[nH]c5ncccc45)n3)cc2)cc1 | 1.194
128 (≈ 386 µM) | Oc1ccc(-c2nc(-c3ccc(Oc4cccnc4)cc3)no2)cc1 | 0.951
128 (≈ 299 µM) | O=P(O)(O)Oc1ccc(Oc2ccc(-c3noc(-c4ccc(F)cc4)n3)cc2)cc1 | 1.208
128 (≈ 387 µM) | COc1ccc(-c2nc(-c3ccc(Br)cc3)no2)cc1 | 0.951
128 (≈ 503 µM) | O=c1[nH]c(-c2ccc(Oc3ccccc3)cc2)no1 | 0.686
128 (≈ 311 µM) | Fc1ccc(Oc2ccc(-c3noc(-c4ccc(Br)cc4)n3)cc2)cc1 | 1.167
128 (≈ 425 µM) | Brc1ccc(-c2nc(-c3ccccc3)no2)cc1 | 0.856
128 (≈ 339 µM) | O=[N+]([O-])c1ccc(-c2nc(-c3ccc(Oc4ccccc4)cc3)no2)cc1F | 1.081
128 (≈ 287 µM) | O=[N+]([O-])c1ccc(-c2nc(-c3ccc(Oc4ccc(C(F)(F)F)cc4)cc3)no2)cc1F | 1.247
128 (≈ 385 µM) | Fc1ccc(-c2nc(-c3ccc(Oc4ccccc4)cc3)no2)cc1 | 0.954
128 (≈ 276 µM) | O=[N+]([O-])c1c(F)cc(-c2nc(-c3ccc(Oc4ccc(C(F)(F)F)cc4)cc3)no2)cc1F | 1.286
128 (≈ 310 µM) | O=P(O)(O)c1ccc(-c2nc(-c3ccc(Oc4ccc(F)cc4)cc3)no2)cc1 | 1.17

MIC [µg/mL] | Compound | -logMIC
128 (≈ 381 µM) | Nc1c[nH]c(-c2nc(-c3ccc(Oc4ccc(F)cc4)cc3)no2)c1 | 0.966
128 (≈ 533 µM) | Fc1ccc(-c2nc(-c3ccccc3)no2)cc1 | 0.63
128 (≈ 329 µM) | COc1ccc(-c2nc(-c3ccc(Oc4ccccc4)cc3)no2)cc1[N+](=O)[O-] | 1.113
128 (≈ 500 µM) | Oc1ccc(-c2nc(-c3ccc(F)cc3)no2)cc1 | 0.694
64 (≈ 171 µM) | O=C(O)c1cccc(Oc2ccc(-c3noc(-c4ccc(O)cc4)n3)cc2)c1 | 1.766
64 (≈ 171 µM) | O=C(O)c1ccc(Oc2ccc(-c3noc(-c4ccc(O)cc4)n3)cc2)cc1 | 1.766
8 (≈ 21.3 µM) | O=[N+]([O-])c1cc(-c2noc(-c3ccc(O)cc3)n2)ccc1Oc1ccccc1 | 3.848
8 (≈ 16.8 µM) | O=[N+]([O-])c1c[nH]nc1-c1nc(-c2ccc(Oc3ccc(I)cc3)cc2)no1 | 4.084
8 (≈ 22.5 µM) | Nc1c[nH]nc1-c1nc(-c2ccc(Oc3ccc(F)c(F)c3)cc2)no1 | 3.794
4 (≈ 9.45 µM) | Oc1ccc(-c2nc(-c3ccc(Oc4cccc(CBr)c4)cc3)no2)cc1 | 4.662
4 (≈ 11.3 µM) | c1ccc(Oc2ccc(-c3noc(-c4ccc5[nH]ccc5c4)n3)cc2)cc1 | 5.174
4 (≈ 10.7 µM) | O=[N+]([O-])c1ccccc1Oc1ccc(-c2noc(-c3ccc(O)cc3)n2)cc1 | 4.542
2 (≈ 5.19 µM) | O=[N+]([O-])c1c[nH]nc1-c1nc(-c2ccc(Oc3ccc(F)c(F)c3)cc2)no1 | 5.261
2 (≈ 5.39 µM) | Fc1ccc(Oc2ccc(-c3noc(-c4ccc5[nH]ccc5c4)n3)cc2)cc1 | 5.224
2 (≈ 5.48 µM) | Oc1ccc(-c2nc(-c3ccc(Oc4ccccc4)c(Cl)c3)no2)cc1 | 5.206
2 (≈ 4.89 µM) | Oc1ccc(-c2nc(-c3ccc(Oc4ccc(Br)cc4)cc3)no2)cc1 | 5.321
2 (≈ 4.62 µM) | Nc1c(F)cc(-c2nc(-c3ccc(Oc4ccc(C(F)(F)F)cc4)cc3)no2)cc1F | 5.378
2 (≈ 5.39 µM) | [N-]=[N+]=Nc1ccc(Oc2ccc(-c3noc(-c4ccc(O)cc4)n3)cc2)cc1 | 5.224
2 (≈ 5.39 µM) | [N-]=[N+]=Nc1cc(-c2noc(-c3ccc(O)cc3)n2)ccc1Oc1ccccc1 | 5.224
2 (≈ 5.55 µM) | COc1ccc(Oc2ccc(-c3noc(-c4ccc(O)cc4)n3)cc2)cc1 | 5.194
1 (≈ 2.45 µM) | Clc1ccc(Oc2ccc(-c3noc(-c4n[nH]cc4Cl)n3)cc2)cc1Cl | 6.01
0.5 (≈ 1.33 µM) | Fc1ccc(Oc2ccc(-c3noc(-c4n[nH]cc4Cl)n3)cc2)cc1F | 6.619
0.25 (≈ 0.631 µM) | C#Cc1c[nH]nc1-c1nc(-c2ccc(Oc3ccc(C(F)(F)F)cc3)cc2)no1 | 7.369
